# Key:
# [1] = molecular target: T1, recombinant human Meningioma Expressed Antigen 5 (MGEA5), also referred to as O-GlcNAcase (OGA) (Homo sapiens, UniProt O60502); assay: OGA biochemical assay (inhibition of FM-GlcNAc hydrolysis, fluorescence); conditions: FM-GlcNAc substrate; for IC50: 6 h at room temperature, read-out: Enzymatic hOGA, pIC50 (converted); for Enzymatic Emax (%) / Emax: maximal effect; for Emax: read-out: Enzymatic Emax (%)
# T1 construct: Full length OGA enzyme was purchased at OriGene (cat #TP322411); purchased OriGene TP322411
# T1 sequence (O60502 1-916): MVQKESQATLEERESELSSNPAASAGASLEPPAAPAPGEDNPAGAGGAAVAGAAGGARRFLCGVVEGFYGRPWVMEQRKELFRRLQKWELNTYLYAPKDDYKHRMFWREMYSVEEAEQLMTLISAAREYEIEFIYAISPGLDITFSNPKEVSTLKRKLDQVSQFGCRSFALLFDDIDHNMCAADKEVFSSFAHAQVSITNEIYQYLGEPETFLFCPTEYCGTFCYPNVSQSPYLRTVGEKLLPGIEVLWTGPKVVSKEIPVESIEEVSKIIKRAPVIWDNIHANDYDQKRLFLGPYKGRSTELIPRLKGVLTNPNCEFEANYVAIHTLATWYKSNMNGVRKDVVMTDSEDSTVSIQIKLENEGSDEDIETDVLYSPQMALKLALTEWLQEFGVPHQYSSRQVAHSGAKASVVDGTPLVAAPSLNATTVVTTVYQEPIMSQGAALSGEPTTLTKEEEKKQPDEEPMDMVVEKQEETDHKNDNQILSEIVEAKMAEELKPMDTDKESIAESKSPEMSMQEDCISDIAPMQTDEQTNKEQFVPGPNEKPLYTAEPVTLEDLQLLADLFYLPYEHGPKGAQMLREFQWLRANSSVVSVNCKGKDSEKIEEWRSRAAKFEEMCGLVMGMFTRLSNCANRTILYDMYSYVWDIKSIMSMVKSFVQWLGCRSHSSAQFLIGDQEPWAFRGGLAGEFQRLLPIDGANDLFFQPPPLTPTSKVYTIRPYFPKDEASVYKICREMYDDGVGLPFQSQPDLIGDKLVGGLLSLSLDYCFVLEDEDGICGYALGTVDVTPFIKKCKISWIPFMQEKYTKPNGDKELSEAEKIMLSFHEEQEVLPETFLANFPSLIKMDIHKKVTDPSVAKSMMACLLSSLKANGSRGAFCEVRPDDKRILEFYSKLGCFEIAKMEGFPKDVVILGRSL
# Outline: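 Full-length human OGA (2 nM) pre-incubated 60 min at room temperature with compound, then FM-GlcNAc (100 µM final) added in citrate/phosphate buffer pH 7.2 with 0.005% Tween-20; 6 h at room temperature, stopped with carbonate pH 11.0. Fluorescein read at 485/538 nm; IC50 and Hill coefficient from curve fit.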
# [2] = molecular target: T2, OGA (Homo sapiens, UniProt O60502); assay: OGA cellular assay (ICC detection of O-GlcNAcylated proteins in HEK293 cells inducible for P301L mutant human Tau); assay type: cell-based; conditions: for Cellular Emax (%) / Emax: maximum defined by Thiamet G at 200 uM; for EC50: read-out: Cellular hOGA, pEC50 (converted); for Emax: HEK293, HEK293 cells inducible for P301L mutant human Tau
# T2 construct: endogenous in cells; host or cells: HEK293 cells inducible for P301L mutant human Tau (isoform 2N4R)
# T2 sequence (O60502 1-916): T1 sequence (O60502 1-916)
# Experimental: HEK293 cells inducible for P301L mutant human Tau (isoform 2N4R) were established at Janssen. Thiamet-G was used for both plate validation (high control) and as reference compound (reference EC50 assay validation). OGA inhibition is evaluated through the immunocytochemical (ICC) detection of O-GlcNAcylated proteins by the use of a monoclonal antibody (CTD110.6; Cell Signaling, #9875) detecting O-GlcNAcylated residues as previously described (Dorfmueller et al. 2010 Chemistry & biology, 17:1250). Inhibition of OGA will result in an increase of O-GlcNAcylated protein levels resulting in an increased signal in the experiment. Cell nuclei are stained with Hoechst to give a cell culture quality control and a rough estimate of immediate compounds toxicity, if any. ICC pictures are imaged with a Perkin Elmer Opera Phenix plate microscope and quantified with the provided software Perkin Elmer Harmony 4.1.
# Cells were propagated in DMEM high Glucose (Sigma, #D5796) following standard procedures. 2 days before the cell assay cells are split, counted and seeded in Poly-D-Lysine (PDL) coated 96-wells (Greiner, #655946) plate at a cell density of 12,000 cells per cm^2 (4,000 cells per well) in 100 μl of Assay Medium (Low Glucose medium is used to reduce basal levels of GlcNAcylation) (Park et al. 2014 The Journal of biological chemistry 289:13519). At the day of compound test medium from assay plates was removed and replenished with 90 μl of fresh Assay Medium. 10 μl of compounds at a 10 fold final concentration were added to the wells. Plates were centrifuged shortly before incubation in the cell incubator for 6 hours. DMSO concentration was set to 0.2%. Medium is discarded by applying vacuum. For staining of cells medium was removed and cells washed once with 100 μl D-PBS (Sigma, #D8537). From next step onwards unless other stated assay volume was always 50 μl and incubation was performed without agitation and at room temperature. Cells were fixed in 50 μl of a 4% paraformaldehyde (PFA, Alpha aesar, #043368) PBS solution for 15 minutes at room temperature. […] Before analysis samples were washed 2 times manually for 5 minutes in ICC base buffer.
# Imaging is performed using Perkin Elmer Phenix Opera using a water 20× objective and recording 9 fields per well. Intensity readout at 488 nm is used as a measure of O-GlcNAcylation level of total proteins in wells. To assess potential toxicity of compounds nuclei were counted using the Hoechst staining. IC50-values are calculated using parametric non-linear regression model fitting. As a maximum inhibition Thiamet G at a 200 uM concentration is present on each plate. In addition, a concentration response of Thiamet G is calculated on each plate.
# [3] = HEK293 cells inducible for P301L mutant human Tau, 6 hours incubation, ICC O-GlcNAcylation
# [4] = HEK293 cells inducible for P301L mutant human Tau
Structure (SMILES),IC50 [1] [µM],Enzymatic Emax (%) [1] [%],"Cellular hOGA; pEC50 [2, 3]","Cellular Emax (%) [2, 4] [%]",Emax [1] [%],"EC50 [2, 3] [µM]",Emax [2] [%]
"Cc1cc(OC[C@]2(C)CCN([C@H](C)c3ccc4c(n3)OCCO4)C2)cc(C)n1 (single isomer, unassigned) [Product 103]",> 10,29,<6,−5,–,–,–
"Cc1cc(C[C@@H]2CCN([C@H](C)c3ccc4c(n3)OCCO4)C2)cc(C)n1 (single isomer, unassigned) [Product 104]",0.0631,–,–,51,100,0.631,–
"Cc1cc(C[C@@H]2CCN([C@H](C)c3ccc4c(n3)OCCO4)C2)cc(C)n1 (single isomer, unassigned) [Product 105]",0.794,91,–,6,–,> 1,–
"COc1cc(C[C@@H]2CCN([C@H](C)c3ccc4c(n3)OCCO4)C2)cc(C)n1 (single isomer, unassigned) [Product 106]",0.0794,–,–,47,100,–,–
"COc1cc(C[C@@H]2CCN([C@H](C)c3ccc4c(n3)OCCO4)C2)cc(C)n1 (single isomer, unassigned) [Product 107]",1.26,90,–,−6,–,> 1,–
COc1cc(C[C@H]2CN([C@H](C)c3ccc4c(n3)OCCO4)C[C@@H]2C)cc(C)n1 (stereo in doubt) [Product 121],0.0501,–,–,–,99,> 1,47
COc1cc(C[C@@H]2CN([C@H](C)c3ccc4c(n3)OCCO4)C[C@H]2C)cc(C)n1 (stereo in doubt) [Product 122],–,–,–,–,49,> 1,-7
COc1cc(C[C@H]2CN([C@@H](C)c3ccc4c(n3)OCCO4)C[C@@H]2C)cc(C)n1 (stereo in doubt) [Product 123],0.126,–,–,–,100,~1,47
COc1cc(C[C@@H]2CN([C@@H](C)c3ccc4c(n3)OCCO4)C[C@H]2C)cc(C)n1 (stereo in doubt) [Product 124],> 10,–,–,–,40,> 1,-3
Cc1cc(C[C@H]2CCN(C(C)c3ccc4c(n3)OCCO4)C2)cc(C(F)(F)F)n1 (some centres unmarked) [Product 5],0.126,–,–,–,100,–,45
Cc1cc(C[C@H]2CCN(C(C)c3ccc4c(c3)OCC4)C2)cc(C(F)(F)F)n1 (some centres unmarked) [Product 6],0.0794,–,–,–,103,> 1,47
Cc1cc(C[C@H]2CCN(C(C)c3cc4c(cc3F)OCCO4)C2)cc(C(F)(F)F)n1 (some centres unmarked) [Product 7],0.02,–,–,–,102,0.398,79
COc1cc(C[C@H]2CCN(C(C)c3ccc4c(c3)OCC4)C2)cc(C)n1 (some centres unmarked) [Product 8],0.126,–,–,–,101,0.794,58
COc1cc(C[C@H]2CCN(C(C)c3nc4c(cc3F)OCCO4)C2)cc(C)n1 (some centres unmarked) [Product 16],0.02,–,–,–,102,0.126,89
Cc1cc(O[C@@H]2CCN(C(C)c3nc4c(cc3F)CCO4)C2)cc(C)n1 (some centres unmarked) [Product 17],0.00251,–,–,–,101,0.02,77
COc1cc(C[C@H]2CCN(C(C)c3cnc4c(c3)OCCN4)C2)cc(C)n1 (some centres unmarked) [Product 20],0.0794,–,–,–,101,0.501,61
Cc1cc(C[C@H]2CCN([C@@H](C)c3cc4c(cc3F)OCCO4)C2)cc(C)n1 [Product 32],0.0158,–,–,–,101,0.126,72
Cc1cc(C[C@@H]2CCN(C(C)c3ccc4c(n3)OCCO4)C2)nc(C)n1 (some centres unmarked) [Product 37],0.251,–,–,–,96,> 1,14
Cc1cc(O[C@@H]2CCN(C(C)c3nc4c(cc3F)OCCO4)C2)cc(C)n1 (some centres unmarked) [Product 38],0.02,–,–,–,98,0.316,69
Cc1cc(O[C@@H]2CCN(C(C)c3nc4c(cc3F)OCCO4)C2)cc(C)n1 (some centres unmarked) [Product 39],0.01,100,–,74,–,0.251,–
COc1cc(C[C@@H]2CCN([C@@H](C)c3cc4c(cc3F)OCCO4)C2)cc(C)n1 [Product 43],0.0158,–,–,–,102,0.398,68
Cc1cc(C[C@@H]2CCN([C@@H](C)c3cc4c(cc3F)OCCO4)C2)cc(C)n1 [Product 45],0.00501,–,–,–,101,0.1,72
Cc1cc(OC[C@H]2CCN(C(C)c3ccc4c(n3)OCCO4)C2)cc(C)n1 (some centres unmarked) [Product 47],0.631,–,–,–,97,> 1,9
COc1cc(OC[C@@H]2CCN(C(C)c3ccc4c(n3)OCCO4)C2)cc(C)n1 (some centres unmarked) [Product 48],1,–,–,–,91,> 1,1
Cc1cc(CO[C@H]2CCN(C(C)c3ccc4c(n3)OCCO4)C2)cc(C)n1 (some centres unmarked) [Product 49],5.01,–,–,–,70,> 1,-5
Cc1cc(OC[C@@H]2CCN(C(C)c3nc4c(cc3F)OCCO4)C2)cc(C)n1 (some centres unmarked) [Product 50],0.0501,–,–,–,100,0.631,58
CC(c1nc2c(cc1F)OCCO2)N1CC[C@@H](Oc2ccc(C#N)nn2)C1 (some centres unmarked) [Product 53],0.0631,–,–,–,93,> 1,43
Cc1ccc(O[C@H]2CCN(C(C)c3ccc4c(n3)OCCO4)C2)cn1 (some centres unmarked) [Product 56],2.51,–,–,–,83,> 1,8
Cc1ccc(O[C@H]2CCN(C(C)c3nc4c(cc3F)OCCO4)C2)cn1 (some centres unmarked) [Product 57],0.316,–,–,–,96,> 1,33
